Patent publication US9738640B2, “Substituted benzamide derivatives as in vitro MAO-B inhibitors” (“NTZ LAB” Ltd., priority 2013, dated 2017)

Tests used:
Type in all cases: biochemical
rat MAO-A = rat MAO-A (Rattus norvegicus (Rat), UniProt P21396); assay: Rat MAO-A assay (Amplex Red fluorescence, rat liver mitochondria); conditions: deprenyl-pretreated, substrate p-tyramine 300 μM
Description: (§1) The MAO-A and MAO-B enzyme activity of the compounds, according to the present invention, was estimated following an assay adapted from the method described by Holt et al. (Anal. Biochem. 244, 384-392, 1997). The MAO experiments were performed using a fluorescence-based detection of resorufin, obtained by a reaction of released from the biological sample hydrogen peroxide with 10-acetyl-3,7-dihydroxyphenoxazine (ADHP) in the presence of a peroxidase (horseradish peroxidase-coupled reaction, HRP). The inhibitory in vitro MAO activity of the compounds of general Formula I was investigated at rat and human MAO-A and MAO-B. To perform rat MAO-A and MAO-B experiments, a preliminary membrane preparation of mitochondrial-enriched rat livers isolated from male Sprague-Dawley rats (Harlan Sprague Dawley, Dublin, US) was required. As sources for recombinant human MAO-A and MAO-B enzymes were used microsomal products, prepared from baculovirus-infected insect cells expressing human MAO-A (Sigma-Aldrich, M7316) and human MAO-B (Sigma-Aldrich, M7441), respectively.
(§2) To estimate MAO inhibitory activity of the compounds of Formula I at rat and human MAO-A and MAO-B, the corresponding test compound was dissolved in 100% DMSO and subsequently added to the appropriate enzyme solution containing rat liver mitochondria (rat MAO-A and -B) or recombinant human protein (for determination of human MAO-A and -B) in sodium phosphate buffer. The test sample was incubated for 30 min at room temperature prior to the addition of Amplex Red reagent (Invitrogen A12214) using for the fluorescence-based measuring of MAO inhibitory activity. The enzymatic reaction was started by the addition of the substrate p-tyramine. The fluorescence measurements were performed over a period of 45 min using a microplate fluorescence reader (excitation at 544 nm and emission at 590 nm). IC50 values were determined from the inhibition curves obtained using different inhibitor concentrations in triplicate within the same experiment. A four-parameter logistic equation was used to fit the dose-response curves for test compounds using a computer program.
(§3) MAO-A and MAO-B enzymatic activity of the compounds was measured in 96-well-plates using a continuous fluorescence-based assay. This assay was adapted from the method described by Holt et al. (Anal. Biochem., 244, 384-392, 1997). The MAO experiments were performed using the commercial assay kit Amplex Red (Invitrogen A12214). The kit was stored frozen at ≦−20° C. and protected from light before use. The Amplex Red MAO assay kit was used for the detection of H2O2 released from the biological sample. Subsequently, a reaction of 10-acetyl-3,7-dihydroxyphenoxazine (ADHP, Amplex Red reagent) with H2O2 in the presence of a peroxidase (horse-radish peroxidase-coupled reaction, HRP) led to the production of resorufin. The quantification of hydrogen peroxide released from the biological sample and the subsequent production of resorufin was monitored using a fluorescence microplate reader (Holt et al., Anal. Biochem., 244, 384-392, 1997). To ensure an optimal efficiency of the Amplex Red reagent, the MAO assay's were performed at pH 7.4.
MAO enzyme-containing mitochondrial-enriched fractions of rat were obtained from male Sprague-Dawley rat livers (250-300 g, Harlan Sprague-Dawley, Dublin, Va., US). The livers (10.0 g) were dissected, given into 15.0 mL of an ice-cold 5.0 mM Hepes buffer (pH 7.4), containing 210 mM mannitol, 70 mM sucrose, 0.5 mM ethylene glycoltetraacetic acid (EGTA), and 2.0 mg/mL of bovine serum albumin (BSA), and homogenized using a glass/Teflon potter (10 ups and downs at 1100 rpm). After homogenization, the volume is adjusted to 100 mL with the same buffer. After a low speed centrifugation (10 min at 600 g; 4° C.), the supernatant was further centrifuged at 15,000 rpm for 5 min at +4° C. […]

human MAO-B = human MAO-B (Homo sapiens (Human), UniProt P27338); assay: Human MAO-B assay (Amplex Red fluorescence, recombinant enzyme); conditions: substrate p-tyramine
human MAO-B, sequence (P27338 whole entry): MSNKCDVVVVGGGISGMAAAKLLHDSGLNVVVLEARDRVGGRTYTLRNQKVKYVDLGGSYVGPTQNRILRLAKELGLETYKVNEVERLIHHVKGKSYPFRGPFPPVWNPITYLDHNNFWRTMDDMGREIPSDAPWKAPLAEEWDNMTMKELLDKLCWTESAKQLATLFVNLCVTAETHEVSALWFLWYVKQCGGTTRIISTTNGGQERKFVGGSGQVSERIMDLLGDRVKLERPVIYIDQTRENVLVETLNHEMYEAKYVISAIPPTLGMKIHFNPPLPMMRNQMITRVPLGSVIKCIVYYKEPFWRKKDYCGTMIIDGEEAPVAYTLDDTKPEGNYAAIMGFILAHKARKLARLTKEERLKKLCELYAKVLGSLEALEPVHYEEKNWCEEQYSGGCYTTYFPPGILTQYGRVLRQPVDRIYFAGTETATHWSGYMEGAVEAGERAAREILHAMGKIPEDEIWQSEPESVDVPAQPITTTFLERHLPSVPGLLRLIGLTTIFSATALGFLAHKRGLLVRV
Description: (§4) To estimate MAO inhibitory activity of the compounds of Formula I at rat and human MAO-A and MAO-B, the corresponding test compound was dissolved in 100% DMSO and subsequently added to the appropriate enzyme solution containing rat liver mitochondria (rat MAO-A and -B) or recombinant human protein (for determination of human MAO-A and -B) in sodium phosphate buffer. The test sample was incubated for 30 min at room temperature prior to the addition of Amplex Red reagent (Invitrogen A12214) using for the fluorescence-based measuring of MAO inhibitory activity. The enzymatic reaction was started by the addition of the substrate p-tyramine. […] IC50 values were determined from the inhibition curves obtained using different inhibitor concentrations in triplicate within the same experiment. A four-parameter logistic equation was used to fit the dose-response curves for test compounds using a computer program.
MAO-A and MAO-B enzymatic activity of the compounds was measured in 96-well-plates using a continuous fluorescence-based assay. […] The MAO experiments were performed using the commercial assay kit Amplex Red (Invitrogen A12214). The kit was stored frozen at ≦−20° C. and protected from light before use. The Amplex Red MAO assay kit was used for the detection of H2O2 released from the biological sample. Subsequently, a reaction of 10-acetyl-3,7-dihydroxyphenoxazine (ADHP, Amplex Red reagent) with H2O2 in the presence of a peroxidase (horse-radish peroxidase-coupled reaction, HRP) led to the production of resorufin. […] To ensure an optimal efficiency of the Amplex Red reagent, the MAO assay's were performed at pH 7.4.
The assay was carried out in 96-well plates in a final volume of 200 μL at room temperature. According to the experiment protocol, a solution of test compound (2.0 μL) in DMSO (100%) was added to 90.0 μL of protein solution (0.3 μg prot/well, containing 6.6 μL protein and 9.993 μL phosphate buffer) and incubated for 30 min prior to the addition of 90 μL of freshly prepared Amplex Red reagent. […] The p-tyramine solution was prepared from p-tyramine hydrochloride (45 μL) in water (100 mM) and phosphate buffer (2955 μL). […] DMSO (2.0 μL) was used as a negative control.
Recombinant human MAO-B enzyme, expressed in baculovirus-infected insect cells, was purchased from Sigma-Aldrich (M7441).

human MAO-A = human MAO-A (Homo sapiens (Human), UniProt P21397); assay: Human MAO-A assay (Amplex Red fluorescence, recombinant enzyme); conditions: substrate p-tyramine 150 μM
human MAO-A, sequence (P21397 whole entry): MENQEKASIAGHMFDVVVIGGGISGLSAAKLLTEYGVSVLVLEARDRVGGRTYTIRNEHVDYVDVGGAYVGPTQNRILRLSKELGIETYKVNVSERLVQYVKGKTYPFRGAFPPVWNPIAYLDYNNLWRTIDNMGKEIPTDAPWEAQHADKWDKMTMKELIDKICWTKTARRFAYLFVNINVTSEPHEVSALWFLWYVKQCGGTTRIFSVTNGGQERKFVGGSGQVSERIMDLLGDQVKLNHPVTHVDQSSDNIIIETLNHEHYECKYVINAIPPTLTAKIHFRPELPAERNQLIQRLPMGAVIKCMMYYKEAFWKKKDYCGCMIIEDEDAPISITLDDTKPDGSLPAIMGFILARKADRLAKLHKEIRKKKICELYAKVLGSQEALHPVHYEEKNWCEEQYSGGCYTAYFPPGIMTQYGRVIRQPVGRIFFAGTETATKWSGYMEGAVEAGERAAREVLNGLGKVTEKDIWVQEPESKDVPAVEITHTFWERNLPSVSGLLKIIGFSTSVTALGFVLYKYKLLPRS
Description: as §1, §2, §3
Recombinant human MAO-A enzyme, expressed in baculovirus-infected insect cells, was purchased from Sigma-Aldrich (M7316). The assay was carried out in 96-well plates in a final volume of 200 μL at room temperature. According to the experiment protocol, a solution of test compound (2.0 μL) in DMSO (100%) was added to 90.0 μL of protein solution (0.3 μg prot/well, containing 6.6 μL protein and […] phosphate buffer) and incubated for 30 min prior to the addition of 90 μL of freshly prepared Amplex Red reagent. The Amplex Red reagent was prepared as described for rat MAO-A. The enzymatic reaction was started by the addition of 20.0 μL/well of an aqueous solution of the substrate p-tyramine (150 μM final concentration). […]

rat MAO-B = rat MAO-B (Rattus norvegicus (Rat), UniProt P19643); assay: Rat MAO-B assay (Amplex Red fluorescence, rat liver mitochondria); conditions: clorgyline-pretreated, substrate p-tyramine
rat MAO-B, sequence (P19643 whole entry): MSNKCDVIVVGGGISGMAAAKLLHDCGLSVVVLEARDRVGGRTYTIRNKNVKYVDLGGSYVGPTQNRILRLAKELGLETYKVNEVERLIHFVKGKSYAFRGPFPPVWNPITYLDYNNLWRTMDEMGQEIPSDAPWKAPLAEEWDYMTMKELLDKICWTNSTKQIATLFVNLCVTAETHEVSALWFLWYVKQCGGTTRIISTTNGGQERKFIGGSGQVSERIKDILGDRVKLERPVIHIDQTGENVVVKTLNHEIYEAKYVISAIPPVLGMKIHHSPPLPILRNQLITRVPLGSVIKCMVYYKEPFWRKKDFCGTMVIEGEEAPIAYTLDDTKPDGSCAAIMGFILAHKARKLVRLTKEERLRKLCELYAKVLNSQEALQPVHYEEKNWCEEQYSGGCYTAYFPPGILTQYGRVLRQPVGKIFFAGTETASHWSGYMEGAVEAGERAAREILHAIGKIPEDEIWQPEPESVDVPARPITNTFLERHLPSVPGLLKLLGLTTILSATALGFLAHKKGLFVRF
Description: as §4
MAO enzyme-containing mitochondrial-enriched fractions of rat were obtained from male Sprague-Dawley rat livers (250-300 g, Harlan Sprague-Dawley, Dublin, Va., US). The livers (10.0 g) were dissected, given into 15.0 mL of an ice-cold 5.0 mM Hepes buffer (pH 7.4), containing 210 mM mannitol, 70 mM sucrose, 0.5 mM ethylene glycoltetraacetic acid (EGTA), and 2.0 mg/mL of bovine serum albumin (BSA), and homogenized using a glass/Teflon potter (10 ups and downs at 1100 rpm). After homogenization, the volume is adjusted to 100 mL with the same buffer. After a low speed centrifugation (10 min at 600 g; 4° C.), the supernatant was further centrifuged at 15,000 rpm for 5 min at +4° C. The resulting pellet was resuspended in 2.0 mL of a 50 mM sodium phosphate buffer (pH 7.4) and stored at −80° C. in aliquots of 1.0 mL until further use.
Assays were performed in 96-well plates in a final volume of 200 μL at room temperature. […] Test compounds (2.0 μL), dissolved in DMSO (100%), were added to 90.0 μL of mitochondrial preparation (25.0 μg prot) and incubated for 30 min prior to the addition of 90 μL of freshly prepared Amplex Red reagent, prepared as recommended in the kit from Invitrogen (A12214). For a 96-well plate, 1.0 mg of Amplex Red, dissolved in 200 μL of DMSO (100%) and 100 μL of reconstituted horse-radish peroxidase (HRP 200 U/mL, Sigma Aldrich P6782) stock solution (kit vial+1.0 mL of sodium phosphate buffer) were added to 9700 μL of sodium phosphate buffer (250 mM at pH 7.4).

rat MAO-A, sequence (P21396 whole entry): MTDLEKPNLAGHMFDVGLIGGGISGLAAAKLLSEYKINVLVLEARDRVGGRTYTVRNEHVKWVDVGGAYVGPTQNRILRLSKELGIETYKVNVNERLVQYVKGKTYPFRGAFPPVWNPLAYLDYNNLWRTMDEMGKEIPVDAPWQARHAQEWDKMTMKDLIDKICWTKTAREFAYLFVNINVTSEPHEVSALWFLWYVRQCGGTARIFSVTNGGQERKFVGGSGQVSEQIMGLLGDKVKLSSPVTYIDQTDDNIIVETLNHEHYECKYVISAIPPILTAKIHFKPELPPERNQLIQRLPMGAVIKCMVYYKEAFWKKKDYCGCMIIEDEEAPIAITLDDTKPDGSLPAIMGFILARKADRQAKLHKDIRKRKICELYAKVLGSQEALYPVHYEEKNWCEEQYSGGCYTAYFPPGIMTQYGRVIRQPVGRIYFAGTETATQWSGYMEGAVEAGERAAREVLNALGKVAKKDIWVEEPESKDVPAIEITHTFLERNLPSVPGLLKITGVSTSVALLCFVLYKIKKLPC

Row | Structure (SMILES) | IC50 (rat MAO-A) [nM] | IC50 (human MAO-B) [nM] | IC50 (human MAO-A) [nM] | IC50 (rat MAO-B) [nM]
1 | O=C(Nc1ccc2c(ccn2C(=O)c2ccc(Cl)c(F)c2)n1)c1ccc(Cl)c(F)c1 [Example 5, 4-chloro-N-(1-(4-chloro-3-fluorobenzoyl)-1H-pyrrolo[3,2-b]pyridin-5-yl)-3-fluorobenzamide] | > 10000 | 27.5 ± 2 | > 10000 | 246 ± 53
2 | O=C(Nc1ccc2[nH]ccc2n1)c1ccc(F)c(Cl)c1 [Example 2, 3-chloro-4-fluoro-N-(1H-pyrrolo[3,2-b]pyridin-5-yl)benzamide] | > 10000 | 3.27 ± 0.04 | > 10000 | 4.9 ± 0.33
3 | O=C(Nc1ccc2[nH]ccc2n1)c1ccc(Cl)c(F)c1 [Example 3, 4-chloro-3-fluoro-N-(1H-pyrrolo[3,2-b]pyridin-5-yl)benzamide] | > 10000 | 10.9 ± 0.75 | > 10000 | 85.5 ± 5.8
4 | O=C(Nc1ccc2[nH]ccc2n1)c1ccc(F)c(F)c1 [Example 4, 3,4-difluoro-N-(1H-pyrrolo[3,2-b]pyridin-5-yl)benzamide] | > 10000 | 46.1 ± 1.5 | > 10000 | 153 ± 11
5 | O=C(Nc1cc2cc[nH]c2cn1)c1ccc(Cl)c(Cl)c1 [Example 6, 3,4-dichloro-N-(1H-pyrrolo[2,3-c]pyridin-5-yl)benzamide] | ≥ 10000 | 28.5 ± 2.4 | < 10000 | 224 ± 17
6 | O=C(Nc1ccc2[nH]ccc2n1)c1ccc(Cl)c(Cl)c1 [Example 1, 3,4-dichloro-N-(1H-pyrrolo[3,2-b]pyridin-5-yl)benzamide] | > 10000 |  | > 10000 | 
7 | O=C(Nc1cc2cc[nH]c2cn1)c1ccc(F)c(Cl)c1 [Example 7, 3-chloro-4-fluoro-N-(1H-pyrrolo[2,3-c]pyridin-5-yl)benzamide] | < 10000 | 72 ± 2.6 | < 10000 | 158 ± 16
8 | O=C(Nc1cc2cc[nH]c2cn1)c1ccc(F)c(F)c1 [Example 8, 3,4-difluoro-N-(1H-pyrrolo[2,3-c]pyridin-5-yl)benzamide] | > 10000 | 277 ± 12 | > 10000 | 
